In ChEMBL document CHEMBL1157741, “Synthesis and antituberculosis activity of novel mefloquine-isoxazole carboxylic esters as prodrugs” (Bioorg Med Chem Lett, 2010):
Converted amounts (≈) assume the structure as drawn.

Columns and labels:
[1] = system: Mycobacterium tuberculosis; test: Antitubercular activity against Mycobacterium tuberculosis H37Rv after 72 hrs by microplate alamar blue assay; format: functional
[2] = system: Mycobacterium tuberculosis; test: Antitubercular activity against Mycobacterium tuberculosis H37Rv after 28 hrs by low oxygen recovery assay; format: functional
Vero = test: Cytotoxicity against african green monkey Vero cells after 72 hrs; format: cell-based; conditions: Chlorocebus sabaeus
[3] = Selectivity index, ratio of IC50 for african green monkey Vero cells to MIC for Mycobacterium tuberculosis H37Rv by microplate alamar blue assay; format: functional
[4] = Selectivity index, ratio of IC50 for african green monkey Vero cells to MIC for Mycobacterium tuberculosis H37Rv by low oxygen recovery assay; format: functional
[5] = system: Mycolicibacterium smegmatis; test: Antimicrobial activity against Mycobacterium smegmatis; format: functional
Bacillus anthracis = test: Antimicrobial activity against Bacillus anthracis; format: functional
Staphylococcus aureus = test: Antimicrobial activity against Staphylococcus aureus; format: functional
Escherichia coli = test: Antimicrobial activity against Escherichia coli; format: functional
Candida albicans = test: Antimicrobial activity against Candida albicans; format: functional
[6] = system: Mycobacterium tuberculosis; test: Antitubercular activity against Mycobacterium tuberculosis H37Rv at pH 6.8 by microplate alamar blue assay; format: functional
[7] = system: Mycobacterium tuberculosis; test: Antitubercular activity against Mycobacterium tuberculosis H37Rv at pH 6 by microplate alamar blue assay; format: functional
[8] = system: Mycobacterium tuberculosis; test: Antitubercular activity against Mycobacterium tuberculosis Erdman infected in mouse J774A.1 cells; format: functional
[9] = Inhibition of CYP; format: ADME
[10] = system: Mycobacterium tuberculosis; test: Antimicrobial activity against Mycobacterium tuberculosis Erdman; format: functional
[11] = Toxicity in po dosed BALB/c mouse assessed as maximum tolerated dose treated for 5 days; format: organism-based; conditions: in vivo
[12] = system: Mycobacterium tuberculosis; test: Antitubercular activity against Mycobacterium tuberculosis H37Rv at pH 6.8 by microplate alamar blue assay relative to control; format: functional

Compound	MIC [1]	MIC [2]	IC50 (Vero)	Selectivity Index [3]	Selectivity Index [4]	further results
OCc1cc(COc2cc(C(F)(F)F)nc3c(C(F)(F)F)cccc23)on1	> 128 µM	> 128 µM	> 128 µM	–	–	–
O=C(OCCC(F)(F)F)c1cc(COc2cc(C(F)(F)F)nc3c(C(F)(F)F)cccc23)on1	25 µM (≈ 12.6 µg/mL)	29.9 µM (≈ 15 µg/mL)	> 128 µM	>5.1	>4.3	–
CCOC(=O)c1cc(COc2ccc3ccc(C(F)(F)F)nc3c2)on1	3.6 µM (≈ 1.32 µg/mL)	21.6 µM (≈ 7.91 µg/mL)	> 128 µM	>25.6	>5.9	–
CCc1noc(-c2cc(COc3cc(C(F)(F)F)nc4c(C(F)(F)F)cccc34)on2)n1	> 128 µM	> 128 µM	> 128 µM	–	–	–
CCOC(=O)c1cc(COc2cc(C(F)(F)F)nc3c(C(F)(F)F)cccc23)on1	0.9 µM (≈ 0.391 µg/mL)	12.1 µM (≈ 5.25 µg/mL)	> 128 µM	>142.2	>10.5	MIC [5]: > 128 µM; MIC (Bacillus anthracis): > 128 µM; MIC (Staphylococcus aureus): > 128 µM; MIC (Escherichia coli): > 128 µM; MIC (Candida albicans): > 128 µM; MIC [6]: 0.9 µM (≈ 0.391 µg/mL); MIC [7]: 0.1 µM (≈ 0.0434 µg/mL); EC90 [8]: 4.1 µM; EC99 [8]: 18.3 µM; inhibition (INH) [9]: Not Active; MIC [10]: 1.74 µM (≈ 0.756 µg/mL)
O=C(c1cc(COc2cc(C(F)(F)F)nc3c(C(F)(F)F)cccc23)on1)N1CCCCO1	> 128 µM	> 128 µM	> 128 µM	–	–	–
CCCCCCOC(=O)c1cc(COc2cc(C(F)(F)F)nc3c(C(F)(F)F)cccc23)on1	15.3 µM (≈ 7.5 µg/mL)	26.7 µM (≈ 13.1 µg/mL)	> 128 µM	>8.4	>4.8	–
O=C(O)c1cc(COc2cc(C(F)(F)F)nc3c(C(F)(F)F)cccc23)on1	–	–	–	–	–	MIC [5]: > 128 µM; MIC (Bacillus anthracis): 32 µM (≈ 13 µg/mL); MIC (Staphylococcus aureus): 22 µM (≈ 8.94 µg/mL); MIC (Escherichia coli): > 128 µM; MIC (Candida albicans): > 128 µM; MIC [6]: > 128 µM; MIC [7]: 7.7 µM (≈ 3.13 µg/mL); MTD at 120 h [11]: 400 mg/kg; Activity [12]: 89%; MIC [10]: > 128 µM
CCCCOC(=O)c1cc(COc2cc(C(F)(F)F)nc3c(C(F)(F)F)cccc23)on1	0.9 µM (≈ 0.416 µg/mL)	9.9 µM (≈ 4.58 µg/mL)	106 µM	>109.1	>10.6	–
CCOC(=O)c1cc(COc2cccc3cccnc23)on1	39.8 µM (≈ 11.9 µg/mL)	125 µM (≈ 37.3 µg/mL)	> 128 µM	>3.2	>1	–
CCOC(=O)c1cc(COc2ccc3ccccc3n2)on1	103 µM (≈ 30.8 µg/mL)	64 µM (≈ 19.1 µg/mL)	> 128 µM	>1.2	>2	–
CCOC(=O)c1cc(COc2ccc([N+](=O)[O-])c(C(F)(F)F)c2)on1	3.5 µM (≈ 1.26 µg/mL)	62.2 µM (≈ 22.4 µg/mL)	> 128 µM	>36.6	>2.1	–
CCOC(=O)c1cc(COc2cc(C(F)(F)F)c3nc(C(F)(F)F)cc(OCc4cc(C(=O)OCC)no4)c3c2)on1	17.6 µM (≈ 10.6 µg/mL)	15.6 µM (≈ 9.41 µg/mL)	> 128 µM	>7.3	>8.2	–
CCOC(=O)c1cc(COc2ccc3ncccc3c2)on1	7.4 µM (≈ 2.21 µg/mL)	12.8 µM (≈ 3.82 µg/mL)	> 128 µM	>17.3	>10	–
CO[C@H]1/C=C/O[C@@]2(C)Oc3c(C)c(O)c4c(O)c(c(/C=N/N5CCN(C)CC5)c(O)c4c3C2=O)NC(=O)/C(C)=C\C=C\[C@H](C)[C@H](O)[C@@H](C)[C@@H](O)[C@@H](C)[C@H](OC(C)=O)[C@@H]1C [RIFAMPIN]	0.1 µM (≈ 0.0823 µg/mL)	2 µM (≈ 1.65 µg/mL)	–	–	–	MIC [6]: 0.1 µM (≈ 0.0823 µg/mL)
O=C(OCc1ccccc1)c1cc(COc2cc(C(F)(F)F)nc3c(C(F)(F)F)cccc23)on1	26.5 µM (≈ 13.2 µg/mL)	50.7 µM (≈ 25.2 µg/mL)	> 128 µM	>4.8	>2.5	–
CCOC(=O)c1cc(COc2ccc3cccnc3c2)on1	10.8 µM (≈ 3.22 µg/mL)	40.3 µM (≈ 12 µg/mL)	108 µM	>9.9	>2.7	–
NC(=O)c1cc(COc2cc(C(F)(F)F)nc3c(C(F)(F)F)cccc23)on1	> 128 µM	> 128 µM	> 128 µM	–	–	–
NC(=O)c1cnccn1 [PYRAZINAMIDE]	–	–	–	–	–	MIC [6]: > 4000 µM; MIC [7]: 829 µM (≈ 102 µg/mL)
CCCOC(=O)c1cc(COc2cc(C(F)(F)F)nc3c(C(F)(F)F)cccc23)on1	1.8 µM (≈ 0.807 µg/mL)	26.1 µM (≈ 11.7 µg/mL)	> 128 µM	>71.2	>4.9	–
NNC(=O)c1cc(COc2cc(C(F)(F)F)nc3c(C(F)(F)F)cccc23)on1	> 128 µM	> 128 µM	> 128 µM	–	–	–
CCOC(=O)c1cc(COc2cccc3ncccc23)on1	35.1 µM (≈ 10.5 µg/mL)	31.1 µM (≈ 9.28 µg/mL)	> 128 µM	>3.6	>4.1	–
NNC(=O)c1ccncc1 [ISONIAZID]	–	–	–	–	–	MIC [6]: 0.1 µM (≈ 0.0137 µg/mL); MIC [7]: 0.1 µM (≈ 0.0137 µg/mL)
CCN(CC)C(=O)c1cc(COc2cc(C(F)(F)F)nc3c(C(F)(F)F)cccc23)on1	> 128 µM	> 128 µM	46.5 µM	–	–	–
CC(=O)OCc1cc(COc2cc(C(F)(F)F)nc3c(C(F)(F)F)cccc23)on1	> 128 µM	> 128 µM	> 128 µM	–	–	–
OC(c1cc(C(F)(F)F)nc2c(C(F)(F)F)cccc12)C1CCCCN1 (configuration not stated) [MEFLOQUINE]	13 µM (≈ 4.92 µg/mL)	7 µM (≈ 2.65 µg/mL)	–	0.9	1.6	–
CCOC(=O)c1cc(COc2ccnc3ccccc23)on1	25.1 µM (≈ 7.49 µg/mL)	11.3 µM (≈ 3.37 µg/mL)	> 128 µM	>5.1	–	–
CCOC(=O)c1cc(COc2ccc3cc[nH]c3c2)on1	8.6 µM (≈ 2.46 µg/mL)	42.9 µM (≈ 12.3 µg/mL)	> 128 µM	>14.9	>2.9	–
